In ChEMBL document CHEMBL5113390, “Design, synthesis and antitumor evaluation of novel 1H-indole-2-carboxylic acid derivatives targeting 14-3-3η protein” (Eur J Med Chem, 2022):

Legend:
Hep 3B2 [1] = test: Induction of apoptosis in human Hep3B cells assessed as late apoptotic cells at 1 uM measured after 48 hrs by Annexin V/FITC-PI staining based flow cytometry assay (reference value: 3.14%); format: functional
Hep 3B2 [2] = test: Induction of cell cycle arrest in human Hep3B cells assessed as accumulation at G0/G1 phase at 1 uM incubated for 48 hrs by flow cytometry analysis (reference value: 60.85 %); format: functional
Hep 3B2 [3] = test: Induction of cell cycle arrest in human Hep3B cells assessed as accumulation at G2/M phase at 10 uM incubated for 48 hrs by flow cytometry analysis (reference value: 8.59 %); format: functional
SNU-387 = test: Antiproliferative activity against human SNU-387 cells assessed as reduction in cell viability incubated for 72 hrs by MTT assay; format: functional, cell-based; conditions: SNU-387, 72 h
Hep 3B2 [4] = test: Induction of apoptosis in human Hep3B cells assessed as necrotic cells at 2.5 uM measured after 48 hrs by Annexin V/FITC-PI staining based flow cytometry assay (reference value: 0.12%); format: functional
hERG [5] = test: Selectivity ratio of IC50 for inhibition of hERG by automated patch clamp analysis to IC50 for antiproliferative activity against human SMMC-7721 cells assessed as reduction in cell viability incubated for 72 hrs by MTT assay; format: toxicity, cell-based; conditions: read-out: Ratio IC50
Hep 3B2 [6] = test: Induction of cell cycle arrest in human Hep3B cells assessed as accumulation at S phase at 5 uM incubated for 48 hrs by flow cytometry analysis (reference value: 30.56 %); format: functional
Hep 3B2 [7] = test: Induction of apoptosis in human Hep3B cells assessed as early apoptotic cells at 5 uM measured after 48 hrs by Annexin V/FITC-PI staining based flow cytometry assay (reference value: 6.65%); format: functional
Hep 3B2 [8] = test: Induction of cell cycle arrest in human Hep3B cells assessed as accumulation at G0/G1 phase at 10 uM incubated for 48 hrs by flow cytometry analysis (reference value: 60.85 %); format: functional
Hep 3B2 [9] = test: Induction of cell cycle arrest in human Hep3B cells assessed as accumulation at G2/M phase at 1 uM incubated for 48 hrs by flow cytometry analysis (reference value: 8.59 %); format: functional
Hep 3B2 [10] = test: Induction of apoptosis in human Hep3B cells assessed as early apoptotic cells at 10 uM measured after 48 hrs by Annexin V/FITC-PI staining based flow cytometry assay (reference value: 6.65%); format: functional
SMMC-7721 = test: Antiproliferative activity against human SMMC-7721 cells assessed as reduction in cell viability incubated for 72 hrs by MTT assay; format: functional, cell-based; conditions: SMMC-7721, 72 h
Hep 3B2 [11] = test: Induction of apoptosis in human Hep3B cells assessed as late apoptotic cells at 5 uM measured after 48 hrs by Annexin V/FITC-PI staining based flow cytometry assay (reference value: 3.14%); format: functional
Bel7402/5-FU = test: Antiproliferative activity against human BEL-7402/5-FU cells overexpressing 14-3-3 eta assessed as reduction in cell viability incubated for 72 hrs by MTT assay; format: functional, cell-based
hERG [12] = test: Selectivity ratio of IC50 for inhibition of hERG by automated patch clamp analysis to IC50 for antiproliferative activity against human BEL-7402/5-FU cells assessed as reduction in cell viability incubated for 72 hrs by MTT assay; format: toxicity, cell-based; conditions: read-out: Ratio IC50
Hep 3B2 [13] = test: Induction of cell cycle arrest in human Hep3B cells assessed as accumulation at G0/G1 phase at 5 uM incubated for 48 hrs by flow cytometry analysis (reference value: 60.85 %); format: functional
[14] = target: T1, 14-3-3 protein eta (Homo sapiens) (UniProt Q04917); test: Inhibition of 14-3-3 eta in human Hep3B cells assessed as reduction in AKT phosphorylation at S473 residue measured after 24 hrs by western blot analysis; format: cell-based; conditions: dose 0.5-5 µM, DDE = dose-dependent effect
T1 sequence (whole entry): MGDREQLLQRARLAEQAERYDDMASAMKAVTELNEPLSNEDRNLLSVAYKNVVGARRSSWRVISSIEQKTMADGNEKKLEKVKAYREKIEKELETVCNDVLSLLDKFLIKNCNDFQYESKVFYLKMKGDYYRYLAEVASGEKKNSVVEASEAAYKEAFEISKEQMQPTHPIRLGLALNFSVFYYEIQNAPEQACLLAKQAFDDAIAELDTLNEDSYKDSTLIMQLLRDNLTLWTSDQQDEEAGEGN

HepG2 = test: Antiproliferative activity against human HepG2 cells assessed as reduction in cell viability incubated for 72 hrs by MTT assay; format: functional, cell-based; conditions: HepG2, 72 h
Hep 3B2 [15] = test: Induction of apoptosis in human Hep3B cells assessed as viable cells at 2.5 uM measured after 48 hrs by Annexin V/FITC-PI staining based flow cytometry assay (reference value: 90.09%); format: functional; conditions: read-out: Activity
Hep 3B2 [16] = test: Induction of cell cycle arrest in human Hep3B cells assessed as accumulation at G2/M phase at 2.5 uM incubated for 48 hrs by flow cytometry analysis (reference value: 8.59 %); format: functional

COc1cccc(CNCc2c(C(=O)O)n(Cc3ccc(C)cc3)c3cc(C(C)C)ccc23)c1
Activity (Hep 3B2 [1]): 4.86% | Activity (Hep 3B2 [2]): 58.63% | Activity (Hep 3B2 [3]): 2.59% | IC50 (SNU-387): 5.47 µM | Activity (Hep 3B2 [4]): 0.27% | selectivity ratio at 72 h (hERG [5]): 11.8 | Activity (Hep 3B2 [6]): 37.73% | Activity (Hep 3B2 [7]): 11.22% | Activity (Hep 3B2 [8]): 67.7% | Activity (Hep 3B2 [9]): 5.79% | Activity (Hep 3B2 [10]): 21.73% | IC50 (SMMC-7721): 2.92 µM | Activity (Hep 3B2 [11]): 7.79% | IC50 (Bel7402/5-FU): 4.55 µM | selectivity ratio at 72 h (hERG [12]): 5.84 | Activity (Hep 3B2 [13]): 58.48% | inhibition [14]: Dde | IC50 (HepG2): 3.43 µM | viability at 2.5 µM (Hep 3B2 [15]): 86% | Activity (Hep 3B2 [16]): 4.47%
